Results on 5 compounds are retold here after patent US9334299B2, “Water-soluble camptothecin derivative, pharmaceutical composition and use thereof” (Hunan Fangshenghuamei Medical Tech. Co. Ltd., priority 2011, dated 2016).

SMILES strings stand for the structures. Entries after “also recorded” stand apart in the source; their conditions may differ. Read-outs that look alike come from different tables or passages of the source.

Holding throughout (assay type): cell-based
Test [1] relates to H146 (small cell lung cancer) cells. In words: CellTiter-Glo cell viability assay, H146 cells. To be noted: for cell killing / dose-dependent cell death in H146 cells, result in words: compared with CPT, floxuridine, etoposide (FIGS. 4-5, Table 3); for viability at 0.1 µM / viability at 1 µM / viability at 10 µM: Homo sapiens, read-out: H146 cell viability after 48 hours of treatment. The source says: (§1) To determine the ability of Compound Dix-905 (also referred as Compound 905) to kill cancer cells, we performed a cell viability assay via CellTiter-Glo kit (Promega) using various cell lines. The kit measures the ATP levels via an enzymatic Luciferase assay. Viable cells, having normal metabolic rates and producing normal levels of ATP, will is have a high turnover of Luciferase substrates, which requires ATP for the enzymatic reaction and emits luminescent signals. By contrast, dying cells will have lower outcome of luminescent signals since their metabolic functions are diminished. The emitted luminescent signals will then be captured by a luminometer.
(§2) To perform the viability assay, small cell lung cancer cells (ATCC catalog No. H146), breast cancer cells (ATCC catalog No. MDAMB231) or colon cancer cells (ATCC catalog No. HCT116) were seeded in 96 wells and treated via Compound Dix-905 and other anti-cancer drugs for a time period of 24, 48, 72 hours. At each respective time point, cells were mixed with Cell Titer Glow reagents for 1 h and evaluated for luminescent signals.
In the “CPT” group, the H146 (small cell lung cancer) cells were treated with CPT (dissolved in DMSO) in 4 concentrations (0, 0.1, 1.0, 10 μM, respectively) for 48 hours; In the Dix-902, Dix-904 and Dix-906 groups, H146 (small cell lung cancer) cells were treated respectively with the corresponding compounds (dissolved in a saline solution) in 4 concentrations (0, 0.1, 1.0, 10 μM, respectively) for 48 hours.

The subject of test [2] is HCT116 (colon cancer) cells. In words: CellTiter-Glo cell viability assay, HCT116 cells. As to conditions: for cell killing / dose-dependent cell death in HCT116 cells, result in words: compared with CPT, 5-FU, Etoposide (FIGS. 7-8, Table 5); for viability at 0.1 µM / viability at 1 µM / viability at 10 µM: Homo sapiens, HCT-116, 48 hours, read-out: HCT116 cell viability after 48 hours of treatment.
From the text: as §1, §2
In the “CPT” group, the is HCT116 cells were treated with CPT (dissolved in DMSO) in 4 concentrations (0, 0.1, 1.0, 10 μM, respectively) for 48 hours. In the Dix-902, Dix-904 and Dix-906 groups, HCT116 cells were treated respectively with the corresponding compounds (dissolved in a saline solution) in 4 concentrations (0, 0.1, 1.0, 10 μM, respectively) for 48 hours.
Background: Cellular ATP, detected with luciferase, serves as a proxy for viable cell number.

The next test has as its system H1693 cells. In words: Cell viability (cell killing) assay, H1693 cells. As to conditions: compared with CPT, floxuridine, etoposide (FIGS. 1-2).
Test [3] concerns Caspase 3/7 in H1693 cells. In words: Caspase-Glo 3/7 caspase activation assay, H1693 cells. As to conditions: FIG. 3. The procedure: (§3) For caspase activation, similar assays could be performed using the Caspase-Glo 3/7kit from Promega after cells were treated with respective agents for various time points. The mechanism of Caspase 3/7 Glow assay is by using Caspase 3/7 substrate fused with Luciferase substrate, which could be cleaved by activated Caspase 3/7. The released Luciferase substrate then undergoes an enzymatic reaction and emits luminescent signals. In contrast to the viability assay, the limiting step for this assay is caspase activation. Dying cells bearing the activated Casapses will have a high readout of luminescent signals in a luminometer.

The test system of test [4] is Caspase 3/7 in H146 cells. Kind of test: Caspase-Glo 3/7 caspase activation assay, H146 cells. As to conditions: FIG. 6. The procedure:
as §3

Test [5] has as its system MDAMB231 (breast cancer) cells. In words: CellTiter-Glo cell viability assay, MDAMB231 cells. As to conditions: Homo sapiens, read-out: MDAMB231 cell viability after 48 hours of treatment.
From the text: as §1, §2
In the “CPT” group, the MDAMB231 (breast cancer) cells were treated with CPT (dissolved in DMSO) in 4 concentrations (0, 0.1, 1.0, 10 μM, respectively) for 48 hours. In the Dix-902, Dix-904 and Dix-906 groups, MDAMB231 (breast cancer) cells were treated respectively with the corresponding compounds (dissolved in a saline solution) in 4 concentrations (0, 0.1, 1.0, 10 μM, respectively) for 48 hours.

Regarding `CC[C@@]1(OP(=O)(O)OC[C@H]2O[C@@H](n3cc(F)c(=O)[nH]c3=O)C[C@@H]2O)C(=O)OCc2c1cc1n(c2=O)Cc2cc3ccccc3nc2-1` [Dix-905], the “cell killing / dose-dependent cell death in H146 cells, result in words” value in test [1] was “cell killing response in H146 better than that of CPT; also recorded: more effective cell killing in H146 than that of CPT, floxuridine, and etoposide”. The “cell killing / dose-dependent cell death in HCT116 cells, result in words” value in test [2] is “Dose-dependent cell death”; in test [2] (listed as DIX-905), “more effective in cell killing than that of CPT, 5-FU and Etoposide”. Besides, the “cell killing in H1693 cells, result in words” value in the test on H1693 cells was “cell killing response better than that of CPT; also recorded: more effective cell killing in H1693 than that of CPT, floxuridine, and etoposide”. Besides, in test [3], the “cell death in H1693 via Caspase activation (apoptotic pathway)” value is “time- and dose-dependent cell death”. Moreover, the “cell death in H146 via Caspase activation (apoptotic pathway)” value in test [4] is “time- and dose-dependent cell death”.
The viability is a per cent measure of how many cells are alive, often set against a control. Regarding `CC[C@@]1(OP(=O)(O)OC[C@H]2O[C@@H](n3cc(C)c(=O)[nH]c3=O)C[C@@H]2O)C(=O)OCc2c1cc1n(c2=O)Cc2cc3ccccc3nc2-1` [Dix-906], the viability at 0.1 µM in test [1] (NCI-H146, 0.1 μM, 48 hours) was 64%; in test [5] (MDA-MB-231, 0.1 μM, 48 hours), 14%; in test [2] it was 90%. Moreover, the viability at 1 µM amounted to 45% in test [1] (NCI-H146, 1.0 μM, 48 hours); 4% in test [5] (MDA-MB-231, 1.0 μM, 48 hours); 71% in test [2]. The viability at 10 µM amounted to 21% in test [1] (NCI-H146, 10 μM, 48 hours); 3% in test [5] (MDA-MB-231, 10 μM, 48 hours); 8% in test [2]. For the same compound, the “cell killing / dose-dependent cell death in H146 cells, result in words” value in test [1] is “similarly to or even slightly better than that of CPT”. In test [2], the “cell killing / dose-dependent cell death in HCT116 cells, result in words” value was “higher than that CPT”.
Turning to `CC[C@@]1(OP(=O)(O)OC[C@H]2O[C@@H](n3cnc4c(N)ncnc43)C[C@@H]2O)C(=O)OCc2c1cc1n(c2=O)Cc2cc3ccccc3nc2-1` [Dix-904], in test [1] (NCI-H146, 48 h), the viability at 0.1 µM came to 67%, the viability at 1 µM is 44% and the viability at 10 µM turned out to be 19%. In test [1], the “cell killing / dose-dependent cell death in H146 cells, result in words” value is recorded as “similarly to or even slightly better than that of CPT”. Besides, in test [5] (MDA-MB-231, 48 h), the viability at 0.1 µM amounted to 13%, the viability at 1 µM worked out at 3% and the viability at 10 µM stood at 1%. In addition, in test [2], the viability at 0.1 µM was 95%; the viability at 1 µM was determined as 70%; the viability at 10 µM was 10%; the “cell killing / dose-dependent cell death in HCT116 cells, result in words” value was “higher than that CPT”.
For `CC[C@@]1(O)C(=O)OCc2c1cc1n(c2=O)Cc2cc3ccccc3nc2-1` [CPT, Camptothecin], the viability at 0.1 µM in test [1] (NCI-H146, 0.1 μM, 48 hours) turned out to be 65%; in test [5] (MDA-MB-231, 0.1 μM, 48 hours) it was 13%; in test [2], 96%. The viability at 1 µM in test [1] (NCI-H146, 1.0 μM, 48 hours) came out at 51%; in test [5] (MDA-MB-231, 1.0 μM, 48 hours), 5%; in test [2] it was 76%. The viability at 10 µM in test [1] (NCI-H146, 10 μM, 48 hours) was found to be 24%; in test [5] (MDA-MB-231, 10 μM, 48 hours), 3%; in test [2] it was 11%. The “cell killing / dose-dependent cell death in HCT116 cells, result in words” value in test [2] is “Dose-dependent cell death”.
Turning to `CC[C@@]1(OP(=O)(O)OC[C@H]2O[C@@H](n3ccc(N)nc3=O)C[C@@H]2O)C(=O)OCc2c1cc1n(c2=O)Cc2cc3ccccc3nc2-1` [Dix-902], in test [1] (NCI-H146, 48 h), the viability at 0.1 µM is 66%, the viability at 1 µM is 43% and the viability at 10 µM came to 20%. In test [1], the “cell killing / dose-dependent cell death in H146 cells, result in words” value is reported as “similarly to or even slightly better than that of CPT”. In addition, in test [5] (MDA-MB-231, 48 h), the viability at 0.1 µM was found to be 15%, the viability at 1 µM amounted to 4% and the viability at 10 µM amounted to 2%. In test [2], the viability at 0.1 µM was 87%; the viability at 1 µM is 68%; the viability at 10 µM was 9%; the “cell killing / dose-dependent cell death in HCT116 cells, result in words” value was “higher than that CPT”.
